Experimental findings from patent publication US9670191B2, “Pyridyl-and pyrimidinyl-substituted pyrrole-, thiophene- and furane-derivatives as kinase inhibitors” (priority 2006, dated 2017) are described below.

Structures can show the parent of a compound that is named as a salt.

The target of one assay is Cdc7/Dbf4 (Homo sapiens (Human), UniProt O00311). As to the kind of experiment: Inhibition assay of Cdc7/Dbf4 activity (Dowex resin capture, 33P-ATP, MCM2 substrate). Type of assay: biochemical.
Chain of Cdc7/Dbf4 (O00311 whole entry, looked up, species assumed): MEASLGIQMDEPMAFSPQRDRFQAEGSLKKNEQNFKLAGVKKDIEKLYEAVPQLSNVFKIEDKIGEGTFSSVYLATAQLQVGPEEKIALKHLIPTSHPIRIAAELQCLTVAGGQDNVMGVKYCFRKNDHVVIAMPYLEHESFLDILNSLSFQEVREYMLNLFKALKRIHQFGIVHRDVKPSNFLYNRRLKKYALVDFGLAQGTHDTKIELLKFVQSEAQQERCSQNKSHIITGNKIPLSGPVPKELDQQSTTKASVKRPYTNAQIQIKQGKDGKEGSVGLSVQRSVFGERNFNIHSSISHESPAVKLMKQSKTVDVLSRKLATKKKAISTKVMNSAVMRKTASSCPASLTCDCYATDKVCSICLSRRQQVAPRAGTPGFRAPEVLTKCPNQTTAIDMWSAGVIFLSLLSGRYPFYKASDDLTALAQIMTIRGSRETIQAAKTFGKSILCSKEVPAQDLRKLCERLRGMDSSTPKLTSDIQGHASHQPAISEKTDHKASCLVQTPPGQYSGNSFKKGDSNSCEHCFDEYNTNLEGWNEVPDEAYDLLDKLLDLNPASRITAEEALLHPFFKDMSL
Chain of Cdc7/Dbf4 (Q9UBU7 whole entry partner, looked up, species assumed): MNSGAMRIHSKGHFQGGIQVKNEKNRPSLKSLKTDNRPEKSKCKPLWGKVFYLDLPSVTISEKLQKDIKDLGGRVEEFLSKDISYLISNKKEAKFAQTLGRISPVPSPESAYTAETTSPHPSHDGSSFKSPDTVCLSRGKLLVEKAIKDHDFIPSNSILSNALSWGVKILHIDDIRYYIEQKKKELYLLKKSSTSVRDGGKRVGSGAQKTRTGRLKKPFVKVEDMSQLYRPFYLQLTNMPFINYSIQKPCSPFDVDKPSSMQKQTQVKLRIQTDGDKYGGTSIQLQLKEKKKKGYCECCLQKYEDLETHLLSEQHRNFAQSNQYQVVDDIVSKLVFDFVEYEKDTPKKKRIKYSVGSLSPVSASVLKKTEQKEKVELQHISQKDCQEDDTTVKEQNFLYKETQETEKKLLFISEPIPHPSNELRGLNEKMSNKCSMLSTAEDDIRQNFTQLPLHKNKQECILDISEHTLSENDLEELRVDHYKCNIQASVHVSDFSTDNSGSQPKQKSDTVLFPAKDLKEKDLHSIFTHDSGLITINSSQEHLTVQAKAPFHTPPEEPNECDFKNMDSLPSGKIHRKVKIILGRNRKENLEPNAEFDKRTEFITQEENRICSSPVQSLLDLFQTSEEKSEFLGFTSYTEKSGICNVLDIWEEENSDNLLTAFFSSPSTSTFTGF
Conditions: not given
How it is done: Inhibition Assay of Cdc7 Activity
The inhibiting activity of putative Cdc7 inhibitors and the potency of selected compounds is determined through a method of assay based on the use of Dowex resin capture technology.
The assay consists of the transfer of radioactivity labeled phosphate moiety by the kinase to an acceptor substrate. The resulting 33P-labeled product is separated from unreacted tracer, transferred into a scintillation cocktail and light emitted is measured in a scintillation counter.
The inhibition assay of Cdc7/Dbf4 activity is performed according to the following protocol.
The MCM2 substrate is trans-phosphorylated by the Cdc7/Dbf4 complex in the presence of ATP traced with γ^33-ATP. The reaction is stopped by addition of Dowex resin in the presence of formic acid. Dowex resin particles capture unreacted γ^33-ATP and drag it to the bottom of the well while ^33P phosphorylated MCM2 substrate remains in solution. The supernatant is collected, transferred into Optiplate plates and the extent of substrate phosphorylation is evaluated by β counting.
The inhibition assay of Cdc7/Dbf4 activity was performed in 96 wells plate according to the following protocol.
The solvent for test compounds contained 3% DMSO (final concentration 1%) • 10 μl substrate MCM2 (6 μM final concentration), a mixture of cold ATP (2 μM final concentration) and radioactive ATP (1/5000 molar ratio with cold ATP). • 10 μl enzyme (Cdc7/Dbf4, 2 nM final concentration) that started the reaction. The buffer of the reaction consisted in 50 mM HEPES pH 7.9 containing 15 mM MgCl2, 2 mM DTT, 3 uM NaVO3, 2 mM glycerophosphate and 0.2 mg/ml BSA. • After incubation for 60 minutes at room temperature, the reaction was stopped by adding to each well 150 μl of Dowex resin in the presence of 150 mM formic acid. After another 60 min incubation, 50 μL of suspension were withdrawn and transferred into 96-well OPTIPLATEs containing 150 μl of MicroScint 40 (Packard); after 5-10 minutes shaking the plates were read for 1 min in a Packard TOP-Count radioactivity reader.
Experimental data were analyzed by the computer program Assay Explorer using the four parameter logistic equation: y=bottom+(top−bottom)/(1+10^((log IC50−x)*slope)) where x is the logarithm of the inhibitor concentration, y is the response; y starts at bottom and goes to top with a sigmoid shape.
Take `COc1ccccc1-c1[nH]c(-c2ccncc2)cc1C(N)=O` [Compound A10, 2-(2-Methoxy-phenyl)-5-pyridin-4-yl-1H-pyrrole-3-carboxylic acid amide hydrochloride]: the IC50 is 1 to 100 nM.

In turn, `Cc1ccc(-c2[nH]c(-c3ccncc3)cc2C(N)=O)cc1` [Compound A9, 5-pyridin-4-yl-2-p-tolyl-1H-pyrrole-3-carboxylic acid amide] yielded an IC50 of 1 to 100 nM.

The compound `NC(=O)c1cc(-c2ccncc2)[nH]c1-c1ccccc1F` [Compound A2, 2-(2-Fluoro-phenyl)-5-pyridin-4-yl-1H-pyrrole-3-carboxylic acid amide hydrochloride] returned an IC50 of 1 to 100 nM.

The compound `COc1cccc(-c2[nH]c(-c3ccncc3)cc2C(N)=O)c1` [Compound A11, 2-(3-Methoxy-phenyl)-5-pyridin-4-yl-1H-pyrrole-3-carboxylic acid amide] yielded an IC50 of 1 to 100 nM.

In turn, `COc1ccc(-c2[nH]c(-c3ccncc3)cc2C(N)=O)cc1` [Compound A12, 2-(4-Methoxy-phenyl)-5-pyridin-4-yl-1H-pyrrole-3-carboxylic acid amide hydrochloride] registered an IC50 of 1 to 100 nM.

Regarding `NC(=O)c1cc(-c2ccncc2F)[nH]c1-c1ccccc1` [Compound E1, 5-(3-Fluoro-pyridin-4-yl)-2-phenyl-1H-pyrrole-3-carboxylic acid amide], the IC50 was 1 to 100 nM.

`NC(=O)c1cc(-c2ccncc2)[nH]c1-c1ccccc1` [Compound A1, 2-Phenyl-5-pyridin-4-yl-1H-pyrrole-3-carboxylic acid amide] showed an IC50 of 1 to 100 nM.

Take `Cc1cccc(-c2[nH]c(-c3ccncc3)cc2C(N)=O)c1` [Compound A8, 5-Pyridin-4-yl-2-m-tolyl-1H-pyrrole-3-carboxylic acid amide]: the IC50 was in the range of 1 to 100 nM.

As to `NC(=O)c1cc(-c2ccncc2)[nH]c1-c1cccc(Br)c1` [Compound A5, 2-(3-Bromo-phenyl-5-pyridin-4-yl-1H-pyrrole-3-carboxylic acid amide hydrochloride], the IC50 lay in the range of 1 to 100 nM.

In turn, `NC(=O)c1cc(-c2ccnc(N)n2)[nH]c1-c1ccccc1` [Compound F1, 5-(2-Amino-pyrimidin-4-yl)-2-phenyl-1H-pyrrole-3-carboxylic acid amide] gave an IC50 of 1 to 100 nM.

As for `NC(=O)c1cc(-c2ccncc2)[nH]c1-c1ccc(F)cc1` [Compound A4, 2-(4-Fluoro-phenyl-5-pyridin-4-yl-1H-pyrrole-3-carboxylic acid amide hydrochloride], the IC50 fell in the range of 1 to 100 nM.

For `CC(C)NC(=O)c1cc(-c2ccnc(N)n2)[nH]c1-c1ccccc1` [Compound M2, 5-(2-Amino-pyrimidin-4-yl)-2-phenyl-1H-pyrrole-3-carboxylic acid isopropylamide], the IC50 lay in the range of 1 to 100 nM.

Compound `CCn1c(-c2ccnc(N)n2)cc(C(N)=O)c1-c1ccccc1` [Compound L1, 5-(2-Amino-pyrimidin-4-yl)-1-ethyl-2-phenyl-1H-pyrrole-3-carboxylic acid amide] showed an IC50 of 1 to 100 nM.

In turn, `NC(=O)c1cc(-c2ccnc(Nc3ccccc3)n2)[nH]c1-c1ccccc1` [Compound H1, 2-Phenyl-5-(2-phenylamino-pyrimidin-4-yl)-1H-pyrrole-3-carboxylic acid amide] displayed an IC50 of 1 to 100 nM.

In the case of `NC(=O)c1cc(-c2ccncc2)[nH]c1-c1ccc(Br)cc1` [Compound A6, 2-(4-Bromo-phenyl)-5-pyridin-4-yl-1H-pyrrole-3-carboxylic acid amide hydrochloride], the IC50 lay in the range of 1 to 100 nM.

In the case of `Nc1nccc(-c2cc(C(=O)NCc3ccccc3)c(-c3ccccc3)[nH]2)n1` [Compound M3, 5-(2-Amino-pyrimidin-4-yl)-2-phenyl-1H-pyrrole-3-carboxylic acid benzylamide], the IC50 fell in the range of 1 to 100 nM.

Compound `NC(=O)c1cc(-c2ccnc(N)n2)[nH]c1-c1ccsc1` [Compound G1, 5-(2-amino-pyrimidin-4-yl)-2-thiophen-3-yl-1H-pyrrole-3-carboxylic acid amide] registered an IC50 of 1 to 100 nM.

Compound `NC(=O)c1cc(-c2ccncc2)[nH]c1-c1cccc(F)c1` [Compound A3, 2-(3-Fluoro-phenyl)-5-pyridin-4-yl-1H-pyrrole-3-carboxylic acid amide] had an IC50 of 1 to 100 nM.

Still in this assay, the particulars now being: MCM2 substrate 6 μM, ATP 2 μM, enzyme 2 nM, 60 minutes at room temperature; read-out: IC50 values on Cdc7/Dbf4.
In the case of `NC(=O)c1cc(-c2ccncc2)[nH]c1-c1ccoc1` [Compound C2, 2-Furan-3-yl-5-pyridin-4-yl-1H-pyrrole-3-carboxylic acid amide], the IC50 fell in the range of 1 to 100 nM.

Regarding `Nc1nccc(-c2cc(C(=O)NCC3CCCCC3)c(-c3ccccc3)[nH]2)n1` [Compound M4, 5-(2-Amino-pyrimidin-4-yl)-2-phenyl-1H-pyrrole-3-carboxylic acid cyclohexylmethyl-amide], the IC50 is 1 to 100 nM.

For `Cc1ccccc1-c1[nH]c(-c2ccncc2)cc1C(N)=O` [Compound A7, 5-Pyridin-4-yl-2-o-tolyl-1H-pyrrole-3-carboxylic acid amide], the IC50 lay in the range of 1 to 100 nM.

As for `NC(=O)c1cc(-c2ccncc2)[nH]c1-c1ccsc1` [Compound C1, 5-Pyridin-4-yl-2-thiophen-3-yl-1H-pyrrole-3-carboxylic acid amide], the IC50 was in the range of 1 to 100 nM.

As to `Cc1cccc(-c2[nH]c(-c3ccncc3)cc2C(N)=O)c1C` [Compound A20, 2-(2,3-Dimethyl-phenyl)-5-pyridin-4-yl-1H-pyrrole-3-carboxylic acid amide], the IC50 was 1 to 100 nM.
